Reference: patent US20120142735A1, “DISUBSTITUTED [4-(5-AMINOMETHYL-PHENYL)-PIPERIDIN-1-YL]- 1H-INDOL-3-YL]-METHANONES” (SANOFI, priority 2009, published 2012)
“And” between values parts separate entries of the source, which are not always exact repeats. Identical values can stand only once. Counter-ions that a name gives are not always drawn. Like-named read-outs stand apart in the source and are kept apart here.

Target: T1, recombinant human β tryptase (Homo sapiens, UniProt P20231)
T1 construct: host or cells: yeast cells
Experiment: Tryptase primary screen (chromogenic assay), IC50 and Ki determination
Type: biochemical
Details: substrate S2366 0.5 mM (2×Km), room temperature, Ki=IC50/(1+[Substrate]/Km)
Protocol: Tryptase inhibition activity is confirmed using either isolated human lung tryptase or recombinant human β tryptase expressed in yeast cells. Essentially equivalent results are obtained using isolated native enzyme or the expressed enzyme. The assay procedure employs a 96 well microplate (Costar 3590) using L-pyroglutamyl-L-prolyl-L-arginine-para-nitroanilide (S2366: Quadratech) as substrate (essentially as described by McEuen et. al. Biochem Pharm, 1996, 52, pages 331-340). Assays are performed at room temperature using 0.5 mM substrate (2×Km) and the microplate is read on a microplate reader (Beckman Biomek Plate reader) at 405 nm wavelength.
Materials and Methods for Tryptase primary screen (Chromogenic Assay)
S2366 (Stock solutions of 2.5 mM).
Purified recombinant beta Tryptase Stocks of 310 μg/mL.
• Add 60 μL of diluted substrate (final concentration of 500 μM in assay buffer) to each well • Add compound in duplicates, final concentration of 20 μM, volume 20 μL • Add enzyme at a final concentration of 50 ng/mL in a volume of 20 μL • Total volume for each well is 100 μL • Agitate briefly to mix and incubate at room temp in the dark for 30 minutes • Read absorbencies at […]
Each plate has the following controls: • Totals: 60 μL of substrate, 20 μL of buffer (with 0.2% final concentration of DMSO), • 20 μL of enzyme • Non-specific: 60 μL of substrate, 40 μL of buffer (with 0.2% DMSO) • Totals: 60 μL of substrate, 20 μL of buffer (No DMSO), 20 μL of enzyme • Non-specific: 60 μL of substrate, 40 μL of buffer (No DMSO)
The protocol is essentially the same as above except that the compound is added in duplicates at the following final concentrations: 0.01, 0.03, 0.1, 0.3, 1, 3, 10 μM (All dilutions carried out manually). For every assay, whether single point or IC50 determination, a standard compound is used to derive IC50 for comparison. From the IC50 value, the Ki can be calculated using the following formula: Ki=IC50/(1+[Substrate]/Km).

T1 sequence (P20231 31-275): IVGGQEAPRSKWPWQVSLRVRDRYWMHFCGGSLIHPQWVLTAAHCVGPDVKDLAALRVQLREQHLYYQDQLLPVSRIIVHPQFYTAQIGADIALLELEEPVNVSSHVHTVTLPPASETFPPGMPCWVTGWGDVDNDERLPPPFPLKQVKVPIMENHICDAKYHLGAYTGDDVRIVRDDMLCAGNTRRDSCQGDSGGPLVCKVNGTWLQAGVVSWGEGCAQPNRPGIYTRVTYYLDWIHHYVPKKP

Row | Ki (read-out: Tryptase Ki) [nM] | SMILES | Ki (Tryptase Ki)
1 | – | CCCCn1cc(C(=O)N2CCC(c3cc(CN)ccc3F)CC2)c2c(OC(F)(F)F)ccc(F)c21 [Example 7, [4-(5-Aminomethyl-2-fluoro-phenyl)-piperidin-1-yl]-(1-butyl-7-fluoro-4-trifluoromethoxy-1H-indol-3-yl)-methanone hydrochloride] | 365 nM
2 | – | COCCn1cc(C(=O)N2CCC(c3cc(CN)ccc3F)CC2)c2c(F)cc(F)cc21 [Example 18, [4-(5-Aminomethyl-2-fluoro-phenyl)-piperidin-1-yl]-[4,6-difluoro-1-(2-methoxy-ethyl)-1H-indol-3-yl]-methanone hydrochloride] | 192 nM
3 | – | COCCn1cc(C(=O)N2CCC(c3cc(CN)ccc3F)CC2)c2c(Cl)ccc(Cl)c21 [Example 8, [4-(5-Aminomethyl-2-fluoro-phenyl)-piperidin-1-yl]-[4,7-dichloro-1-(2-methoxy-ethyl)-1H-indol-3-yl]-methanone hydrochloride] | 134 nM and 74 nM
4 | 25 | COCCn1cc(C(=O)N2CCC(c3cc(CN)ccc3F)CC2)c2c(F)ccc(F)c21 [Example 17, [4-(5-Aminomethyl-2-fluoro-phenyl)-piperidin-1-yl]-[4,7-difluoro-1-(2-methoxy-ethyl)-1H-indol-3-yl]-methanone] | –
5 | – | COCCn1cc(C(=O)N2CCC(c3cc(CN)ccc3F)CC2)c2c(Cl)ccc(C)c21 [Example 6, [4-(5-Aminomethyl-2-fluoro-phenyl)-piperidin-1-yl]-[4-chloro-1-(2-methoxy-ethyl)-7-methyl-1H-indol-3-yl]-methanone hydrochloride] | 35 nM
6 | – | NCc1ccc(F)c(C2CCN(C(=O)c3cn(CCOC(F)(F)F)c4c(F)ccc(OC(F)(F)F)c34)CC2)c1 [Example 21, [4-(5-Aminomethyl-2-fluoro-phenyl)-piperidin-1-yl]-[7-fluoro-4-trifluoromethoxy-1-(2-trifluoromethoxy-ethyl)-1H-indol-3-yl]-methanone hydrochloride] | 487 nM
7 | – | COCCn1cc(C(=O)N2CCC(c3cc(CN)ccc3F)CC2)c2cc(OC)c(OC)cc21 [Example 20, [4-(5-Aminomethyl-2-fluoro-phenyl)-piperidin-1-yl]-[5,6-dimethoxy-1-(2-methoxy-ethyl)-1H-indol-3-yl]-methanone hydrochloride] | 90 nM
8 | – | COCCn1cc(C(=O)N2CCC(c3cc(CN)ccc3F)CC2)c2c(C(F)(F)F)ccc(F)c21 [Example 13, [4-(5-Aminomethyl-2-fluoro-phenyl)-piperidin-1-yl]-[7-fluoro-1-(2-methoxy-ethyl)-4-trifluoromethyl-1H-indol-3-yl]-methanone hydrochloride] | 129 nM
9 | – | COCCn1cc(C(=O)N2CCC(c3cc(CN)ccc3F)CC2)c2c(Cl)cc(Cl)cc21 [Example 16, [4-(5-Aminomethyl-2-fluoro-phenyl)-piperidin-1-yl]-[4,6-dichloro-1-(2-methoxy-ethyl)-1H-indol-3-yl]-methanone hydrochloride] | 649 nM
10 | – | Cc1ccc(F)c2c(C(=O)N3CCC(c4cc(CN)ccc4F)CC3)cn(CCOC(F)(F)F)c12 [Example 22] | 731 nM
11 | – | COCCn1cc(C(=O)N2CCC(c3cc(CN)ccc3F)CC2)c2c(Cl)ccc(OC(F)(F)F)c21 [Example 12, [4-(5-Aminomethyl-2-fluoro-phenyl)-piperidin-1-yl]-[4-chloro-1-(2-methoxy-ethyl)-7-trifluoromethoxy-1H-indol-3-yl]-methanone hydrochloride] | 171 nM
12 | – | COCCn1cc(C(=O)N2CCC(c3cc(CN)ccc3F)CC2)c2c(C(F)(F)F)ccc(OC)c21 [Example 14, [4-(5-Aminomethyl-2-fluoro-phenyl)-piperidin-1-yl]-[7-methoxy-1-(2-methoxy-ethyl)-4-trifluoromethyl-1H-indol-3-yl]-methanone hydrochloride] | 48 nM
13 | – | COCCn1cc(C(=O)N2CCC(c3cc(CN)ccc3F)CC2)c2c(F)ccc(OC(F)(F)F)c21 [Example 5, [4-(5-Aminomethyl-2-fluoro-phenyl)-piperidin-1-yl]-[4-fluoro-1-(2-methoxy-ethyl)-7-trifluoromethoxy-1H-indol-3-yl]-methanone hydrochloride] | 322 nM
14 | – | COCCn1cc(C(=O)N2CCC(c3cc(CN)ccc3F)CC2)c2c(OC(F)(F)F)ccc(Cl)c21 [Example 10, [4-(5-Aminomethyl-2-fluoro-phenyl)-piperidin-1-yl]-[7-chloro-1-(2-methoxy-ethyl)-4-trifluoromethoxy-1H-indol-3-yl]-methanone hydrochloride] | 146 nM and 122 nM
15 | – | COCCn1cc(C(=O)N2CCC(c3cc(CN)ccc3F)CC2)c2c(F)c(F)ccc21 [Example 19, [4-(5-Aminomethyl-2-fluoro-phenyl)-piperidin-1-yl]-[4,5-difluoro-1-(2-methoxy-ethyl)-1H-indol-3-yl]-methanone hydrochloride] | 142 nM
16 | – | COCCn1cc(C(=O)N2CCC(c3cc(CN)ccc3F)CC2)c2c(F)ccc(C)c21 [Example 4, [4-(5-Aminomethyl-2-fluoro-phenyl)-piperidin-1-yl]-[4-fluoro-1-(2-methoxy-ethyl)-7-methyl-1H-indol-3-yl]-methanone hydrochloride] | 26 nM
17 | – | COCCn1cc(C(=O)N2CCC(c3cc(CN)ccc3F)CC2)c2cc(Cl)cc(C)c21 [Example 1, [4-(5-Aminomethyl-2-fluoro-phenyl)-piperidin-1-yl]-[5-chloro-1-(2-methoxy-ethyl)-7-methyl-1H-indol-3-yl]-methanone hydrochloride] | 116 nM
18 | – | COCCn1cc(C(=O)N2CCC(c3cc(CN)ccc3F)CC2)c2c(C)ccc(F)c21 [Example 15, [4-(5-Aminomethyl-2-fluoro-phenyl)-piperidin-1-yl]-[7-fluoro-1-(2-methoxy-ethyl)-4-methyl-1H-indol-3-yl]-methanone hydrochloride] | 45 nM
19 | – | CCCn1cc(C(=O)N2CCC(c3cc(CN)ccc3F)CC2)c2c(OC(F)(F)F)ccc(F)c21 [Example 11, [4-(5-Aminomethyl-2-fluoro-phenyl)-piperidin-1-yl]-(1-propyl-7-fluoro-4-trifluoromethoxy-1H-indol-3-yl)-methanone hydrochloride] | 208 nM and 186 nM
20 | – | COCCn1cc(C(=O)N2CCC(c3cc(CN)ccc3F)CC2)c2ccc(F)c(C)c21 [Example 2, [4-(5-Aminomethyl-2-fluoro-phenyl)-piperidin-1-yl]-[6-fluoro-1-(2-methoxy-ethyl)-7-methyl-1H-indol-3-yl]-methanone hydrochloride] | 45 nM
21 | – | COCCn1cc(C(=O)N2CCC(c3cc(CN)ccc3F)CC2)c2c(F)ccc(Cl)c21 [Example 9, [4-(5-Aminomethyl-2-fluoro-phenyl)-piperidin-1-yl]-[7-chloro-4-fluoro-1-(2-methoxy-ethyl)-1H-indol-3-yl]-methanone hydrochloride] | 49 nM and 32 nM
22 | – | COCCn1cc(C(=O)N2CCC(c3cc(CN)ccc3F)CC2)c2cc(F)cc(C)c21 [Example 3, [4-(5-Aminomethyl-2-fluoro-phenyl)-piperidin-1-yl]-[5-fluoro-1-(2-methoxy-ethyl)-7-methyl-1H-indol-3-yl]-methanone hydrochloride] | 35 nM
